Measured values: publication PMC11393638 (Regulatory toxicology and pharmacology : RTP, 2023)
Where two headings read alike, the source gives them in different places. Marks after values point to notes of the source that are not given here.

Assays:
tester strains = conditions: preliminary study; these concentrations and above
WP2 uvrA (pKM101) = conditions: 0–200 μg/plate
3D HepaRG spheroids = conditions: 24 h; 3D cultures
[1] = tested on: TK6 cells transduced with CYP3A4; conditions: up to 10 μM; 24 h
[2] = tested on: CYP2C19-expressing HepG2 cells; conditions: 24 h without exogenous metabolism, additional 16 h
[3] = tested on: hepatocytes of Sprague-Dawley rats; conditions: single dose of 1000 mg/kg; ref Martelli et al., 1994; cited from earlier work
[4] = tested on: primary human hepatocytes; conditions: 10 μM to 100 μM; 20-h exposure; ref Robbiano et al., 1991; cited from earlier work
TA98 = conditions: for BMD50L / BMD50U: CES 0.5
[5] = tested on: CYP2C19-expressing TK6 cells; experiment: TK and HPRT gene mutation assays in CYP2C19-expressing TK6 cells; format: cell-based, human; conditions: 4-h treatment, no S9
[6] = tested on: TK6 cells transduced with CYP2C8; conditions: up to 10 μM; 24 h
[7] = tested on: CYP2C19-expressing TK6 cells; conditions: 4- and 24-h exposures
HepG2 cells = conditions: 24 h without exogenous metabolism, additional 16 h
TK6 cells [8] = experiment: TK and HPRT gene mutation assays in TK6 cells with hamster liver S9; conditions: for HPRT gene MF / TK gene MF: 4-h treatment, TK6 cells with 1% hamster liver S9
TA1537 = conditions: 0–200 μg/plate
[9] = tested on: TK6 cells transduced with CYP2A6; conditions: up to 10 μM; 24 h
[10] = tested on: TK6 cells transduced with CYP2D6; conditions: up to 10 μM; 24 h
[11] = tested on: TK6 cells transduced with CYP2E1; conditions: up to 10 μM; 24 h
2D HepaRG cells = conditions: 24 h; 2D cultures
TA100 = conditions: for BMD50L / BMD50U: CES 0.5
[12] = tested on: tester strains TA98 or TA100; conditions: 1 mg/plate; Aroclor 1254-induced rat liver S9; ref Zhang et al., 1983; cited from earlier work
primary rat hepatocytes = conditions: 10 μM to 100 μM; 20-h exposure; ref Robbiano et al., 1991; cited from earlier work
TK6 cells [13] = experiment: In vitro MultiFlow DNA damage assay in TK6 cells
[14] = tested on: tester strains TA1535, TA1537, TA1538, TA92, TA98, and TA100; conditions: maximum concentration 1.4 μmol/plate (404 μg/plate); with and without Aroclor 1254-induced rat liver S9; ref Raisfeld-Danse and Chen, 1983; cited from earlier work
[15] = tested on: TK6 cells transduced with CYP2C19; conditions: 24 h without exogenous metabolism
TK6 cells [16] = experiment: In vitro micronucleus assay in TK6 cells
[17] = TA98, 10% hamster liver S9, preincubation 30 min
[18] = TA98, 10% hamster liver S9, preincubation 60 min
[19] = TA98, 10% rat liver S9, preincubation 30 min
[20] = TA98, 10% rat liver S9, preincubation 60 min
[21] = TA98, 30% hamster liver S9, preincubation 30 min
[22] = TA98, 30% hamster liver S9, preincubation 60 min
[23] = TA98, 30% rat liver S9, preincubation 30 min
[24] = TA98, 30% rat liver S9, preincubation 60 min
[25] = TA98, without S9, preincubation 30 min
[26] = TA98, without S9, preincubation 60 min
[27] = 10% hamster liver S9, preincubation 30 min
[28] = 10% hamster liver S9, preincubation 60 min
[29] = 30% hamster liver S9, preincubation 30 min
[30] = 30% hamster liver S9, preincubation 60 min

CC(C)N(CC(O)COc1cccc2ccccc12)N=O (stereo not shown) [NNP, N-nitroso propranolol]
Concentrations with considerable toxicity in the Ames test (tester strains): 100–500 μg/plate | Mutagenic response in the Ames test (overall) (WP2 uvrA (pKM101)): negative | Lowest concentration that induced positive responses (Comet) (3D HepaRG spheroids): 25 µM | Effect on %MN and cytotoxicity [1]: no effect | %MN [2]: concentration-dependent increase | Lowest observed adverse effect level (LOAEL) for %MN [2]: 2 µM | Micronucleus (MN) formation in hepatocytes [3]: induced micronucleus (MN) formation | DNA fragmentation and unscheduled DNA synthesis (UDS) [4]: concentration-dependent increase | Mutagenic response in the Ames test (overall) (TA98; TA98, 0–200 μg/plate, preincubation method): mutagenic both in the presence and absence of S9 | BMD50L (TA98; [17]): 5.7 μg/plate | BMD50U (TA98; [17]): 10.1 μg/plate | BMD50L (TA98; [18]): 6.9 μg/plate | BMD50U (TA98; [18]): 14.5 μg/plate | BMD50L (TA98; [19]): 7.9 μg/plate | BMD50U (TA98; [19]): 13.0 μg/plate | BMD50L (TA98; [20]): 7.2 μg/plate | BMD50U (TA98; [20]): 11.5 μg/plate | BMD50L (TA98; [21]): 12.8 μg/plate | BMD50U (TA98; [21]): 21.4 μg/plate | BMD50L (TA98; [22]): 18.3 μg/plate | BMD50U (TA98; [22]): 30.3 μg/plate | BMD50L (TA98; [23]): 16.2 μg/plate | BMD50U (TA98; [23]): 27.0 μg/plate | BMD50L (TA98; [24]): 22.4 μg/plate | BMD50U (TA98; [24]): 36.8 μg/plate | BMD50L (TA98; [25]): 9.8 μg/plate | BMD50U (TA98; [25]): 24.7 μg/plate | BMD50L (TA98; [26]): 9.3 μg/plate | BMD50U (TA98; [26]): 15.4 μg/plate | Solvent effect on mutagenicity in TA98 (TA98; dissolved in acetone, methanol, or DMSO): very similar mutational responses | HPRT gene MF ([5]; 0.0625 μM): 4.5^c × 10^−6 | TK gene MF ([5]; 0.0625 μM): 13.2 × 10^−6 | HPRT gene MF ([5]; 0.125 μM): 6.5^c × 10^−6 | TK gene MF ([5]; 0.125 μM): 18.6^c × 10^−6 | HPRT gene MF ([5]; 0.5 μM): 23.0^c × 10^−6 | TK gene MF ([5]; 0.5 μM): 28.5^c × 10^−6 | Effect on %MN and cytotoxicity [6]: no effect | Nuclear P53 [7]: only caused increases in nuclear P53 after 24 h | Cytotoxicity or MN formation (HepG2 cells): did not cause any cytotoxicity or MN formation | HPRT gene MF (TK6 cells [8]; 50 μM): 4.2^c × 10^−6 | TK gene MF (TK6 cells [8]; 50 μM): 15.5^c × 10^−6 | HPRT gene MF (TK6 cells [8]; 100 μM): 7.0^c × 10^−6 | TK gene MF (TK6 cells [8]; 100 μM): 21.8^c × 10^−6 | HPRT gene MF (TK6 cells [8]; 200 μM): 3.2^c × 10^−6 | TK gene MF (TK6 cells [8]; 200 μM): 17.8^c × 10^−6 | HPRT gene MF (TK6 cells [8]; 300 μM): 2.6^c × 10^−6 | TK gene MF (TK6 cells [8]; 300 μM): 16.5^c × 10^−6 | Concentrations producing overt cytotoxicity (TK6 cells [8]; preliminary concentration range-finding study, 1% hamster liver S9, 4 h): ≥ 400 µM | Mutagenic response in the Ames test (overall) (TA1537): negative | Effect on %MN and cytotoxicity [9]: no effect | Effect on %MN and cytotoxicity [10]: no effect | Effect on %MN and cytotoxicity [11]: no effect | Lowest concentration that induced positive responses (Comet) (2D HepaRG cells): 50 µM | Mutagenic response in the Ames test (overall) (TA100; 0–200 μg/plate, S9 activation required): positive mutagenic responses | BMD50L (TA100; [27]): 5.9 μg/plate | BMD50U (TA100; [27]): 21.1 μg/plate | BMD50L (TA100; [28]): 14.1 μg/plate | BMD50U (TA100; [28]): 34.4 μg/plate | BMD50L (TA100; 10% rat liver S9, preincubation 30 min): Negative | BMD50L (TA100; 10% rat liver S9, preincubation 60 min): Negative | BMD50L (TA100; [29]): 7.3 μg/plate | BMD50U (TA100; [29]): 19.9 μg/plate | BMD50L (TA100; [30]): 24.7 μg/plate | BMD50U (TA100; [30]): 62.2 μg/plate | BMD50L (TA100; 30% rat liver S9, preincubation 30 min): Negative | BMD50L (TA100; 30% rat liver S9, preincubation 60 min): Negative | BMD50L (TA100; without S9, preincubation 30 min): Negative | BMD50L (TA100; without S9, preincubation 60 min): Negative | Mutations in the Ames test [12]: did not induce mutations | DNA fragmentation and unscheduled DNA synthesis (UDS) (primary rat hepatocytes): concentration-dependent increase | γH2A.X (TK6 cells [13]; 4-h treatment with 2% hamster S9): concentration-dependent increase | γH2A.X (TK6 cells [13]; 24-h treatment with 0.4% hamster S9, 10 μM (highest concentration, cytotoxic)): level decreased | γH2A.X (TK6 cells [13]; 24-h treatment with 0.4% hamster S9, 2.5 and 5.0 μM): induced increases | Phosphorylation of histone H3 (aneugen marker) (TK6 cells [13]; data not shown): did not increase | γH2A.X fluorescence (TK6 cells [13]; without S9): did not induce any increase | γH2A.X compared to the vehicle control (TK6 cells [13]; without S9, 100 μM): statistically significant decrease | Mutagenicity in the Ames test [14]: negative | Lowest concentration causing a statistically significant increase in %MN [15]: 0.0625 µM | %MN frequency with hamster liver S9 (TK6 cells [16]; 4-h (2% S9) and 24-h (0.4% S9) treatments): concentration-dependent increase | Cytotoxicity after metabolic activation by hamster liver S9 (TK6 cells [16]; 4-h and 24-h treatments): displayed cytotoxicity | Effect on %MN and cytotoxicity (TK6 cells [16]; non-CYP-transduced TK6 cells, up to 10 μM, 24 h): no effect | MN formation over vehicle controls (TK6 cells [16]; without exogenous metabolism, up to 100 μM, 24 h): did not result in any increase in MN formation
